Laboratory results reported in patent US20170273917A1, “NMDA RECEPTOR ANTAGONISTS FOR TREATING GAUCHER DISEASE” (Yeda Research and Development Co. Ltd., priority 2014, published 2017).

Assays:
[1] = system: Grin2b; test: Cortical Grin2b mRNA levels by qPCR; assay type: in vivo, mouse; details: 10 days CBE vs PBS; short living (A/J, C57BL6/JolaHsd) and long living (NZW, FVB) strains
Experimental: RNA extraction and quantitative PCR Following treatment, mice were sacrificed and their brains removed, placed on a Young Mouse Brain Slicer Matrix (BSMYS001-1, Zivic instruments, Pittsburgh, Pa., USA) and cut into 1 mm coronal sections. The cerebral cortex was separated using a spatula and snap-frozen in liquid N2 and stored at −80° C. Total RNA was isolated using the RNeasy mini kit (Qiagen GmbH, Hilden, Germany) according to manufacturer's instructions. Quantitative polymerase chain reaction (Q-PCR) was performed using PerfeCTa SYBR Green FastMix (Quanta BioSciences, Gaithersburg, Md., USA) and an ABI Prism 7300 Sequence Detection System (Applied Biosystems, Foster City, Calif., USA). […] Fold-change in mRNA levels was calculated using the comparative cycle threshold method using TATA box binding protein (TBP) for normalization. P-values were calculated using a two-tailed, two-independent sample Student's t-test. […]
Based on the predictive studies described above, the involvement of Grin2b in the pathogenesis of neuropathic GD was evaluated. […] Since non-coding SNPs can regulate the expression of quantitative trait locus (QTL), the mRNA levels of Grin2b were determined by qPCR. […] The transcript levels was determined in 2 short living (A/J and C57BL6/JolaHsd) and 2 long living strains (NZW and FVB) 10 days following PBS or CBE treatment.

[2] = target: T1, GBA1 (Mus musculus, UniProt P17439); test: GBA1 activity assay in brain homogenates of treated mice; assay type: in vivo; details: mice treated for 10 days with CBE vs PBS; all strains tested; brains harvested P18
T1 construct: from tissue; host or cells: mouse brain (frozen half-brain homogenate) of inbred strains treated in vivo with PBS, CBE or CBE plus memantine
T1 sequence (P17439 20-515): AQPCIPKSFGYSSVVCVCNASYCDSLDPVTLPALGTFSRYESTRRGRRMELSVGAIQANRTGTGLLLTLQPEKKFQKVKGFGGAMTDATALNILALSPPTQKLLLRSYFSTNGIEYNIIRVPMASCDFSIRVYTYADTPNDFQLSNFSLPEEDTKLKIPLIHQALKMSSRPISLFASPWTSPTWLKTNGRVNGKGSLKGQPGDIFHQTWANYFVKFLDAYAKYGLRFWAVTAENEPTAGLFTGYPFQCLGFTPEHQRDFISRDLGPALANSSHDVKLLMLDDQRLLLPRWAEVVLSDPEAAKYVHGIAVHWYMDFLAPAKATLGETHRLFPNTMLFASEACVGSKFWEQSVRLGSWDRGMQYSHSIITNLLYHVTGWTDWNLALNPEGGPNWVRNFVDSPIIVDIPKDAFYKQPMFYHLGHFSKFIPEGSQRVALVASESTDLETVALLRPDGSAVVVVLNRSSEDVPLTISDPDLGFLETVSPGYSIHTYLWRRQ
Experimental: GBA1 activity assay—GBA1 activity was performed as previously described (Farfel-Becker et al. Hum Mol Genet. 2014; 23(4):843-54). Briefly, frozen half-brain samples were sonicated in Mcllvaine's buffer (0.1 M citric acid, pH 4.2, 0.2 M Na2HPO4, 29:21, vol:vol). Tissue homogenates containing 50 μg of protein were incubated at 37° C. with 8 μM C6-NBD-GlcCer (Avanti Polar Lipids, Alabaster, Ala., USA) in a final volume of 25 μl Mcllvaine's buffer for 30 minutes. Lipids were extracted and the lower phase separated by thin layer chromatography using chloroform:methanol:9.8 mM CaCl2 (60:35:8, vol:vol:vol) as the developing solvent. C6-NBD-ceramide was identified with an authentic standard using a Typhoon 9410 variable mode imager and bands were quantified by Image-QuantTL (GE Healthcare, Chalfont St Giles, UK).
To eliminate the possibility that the phenotypic differences observed in the different mouse strains were caused by differential CBE metabolism in the brain, GBA1 enzymatic activity in mice treated for 10 days with CBE or PBS (control) was measured. […] Overall, the remaining GBA1 activity was 5-10% of the controls (FIG. 3A). There was no correlation between GBA1 activity in the brain and life spans neither in the PBS(R^2=0.126, data not shown) nor CBE conditions (R^2=0.0581, FIG. 3B). In addition, no correlation was found between inhibition of GBA1 activity and life span when evaluated according to strains (R^2=0.0085, data not shown).

[3] = system: motor coordination of CBE-treated mice; test: Locomotor testing by the hanging wire test; assay type: in vivo, mouse; details: short living CBE-treated strains; weekly from P21 for 2 months
Text: Locomotor testing—Locomotor coordination was weekly evaluated in the treated strains by the hanging wire test, a validated test for LSD mouse models (Alvarez et al. 2008). Briefly, the mouse was placed with forepaws at a center of a horizontal bar (3 mm diameter; 35 mm long).
To further characterize the effect of CBE treatment on the different strains, motor behavior was followed weekly using the hanging wire test, starting at postnatal day 21 for a period of 2 months. The hanging wire test evaluates coordination and locomotor function, wherein a high score means better coordination. […] Of note, strains PWD/PhJ and WSB/EiJ were excluded in the motor behavior analysis due to their wild behavior.

O[C@H]1[C@H](O)[C@@H](O)[C@@H]2O[C@@H]2[C@@H]1O [CBE, Conduritol-β-epoxide]
Grin2b expression levels (cortical mRNA, qPCR) [1]: increased only in the short-living strains
remaining cerebral GBA1 activity [2]: 5-10 % of the controls
motor behavior (hanging wire test) [3]: poor motor behaviors starting at very early time points
